# “And” between values parts separate entries of the source, which are not always exact repeats. Equal entries are not always repeated. “Also recorded” adds a separate entry of the source. Where two headings read alike, the source gives them in different places.
# Key:
# [1] = in vivo
# [2] = tested on: CFTR knock-out mice; conditions: mouse, in vivo
# [3] = tested on: 19 day old pups; conditions: mouse, in vivo
# [4] = tested on: insect cells; conditions: cited from earlier work
# [5] = tested on: Balb/C mice; conditions: mouse, in vivo, ip
# [6] = tested on: CD1 mice; conditions: mouse, in vivo
# [7] = tested on: infectious SA11 rotavirus; conditions: mouse, in vivo
# [8] = tested on: CD1 mice ileal mucosa; format: cell-based, mouse
# [9] = tested on: mice; conditions: mouse, in vivo; cited from earlier work
# [10] = tested on: mice; conditions: mouse, in vivo
# [11] = tested on: simian rotavirus SA11; conditions: mouse, in vivo
# [12] = tested on: full-length NSP4; design: species or system simian rotavirus SA11; conditions: in vivo, sc
# [13] = tested on: murine rotavirus ECwt; conditions: mouse, in vivo
# [14] = target: SA11 VP6 (Rotavirus A, UniProt P03531); design: species or system simian rotavirus SA11; conditions: in vivo
# Sequence of SA11 VP6 (P03531 whole entry, looked up): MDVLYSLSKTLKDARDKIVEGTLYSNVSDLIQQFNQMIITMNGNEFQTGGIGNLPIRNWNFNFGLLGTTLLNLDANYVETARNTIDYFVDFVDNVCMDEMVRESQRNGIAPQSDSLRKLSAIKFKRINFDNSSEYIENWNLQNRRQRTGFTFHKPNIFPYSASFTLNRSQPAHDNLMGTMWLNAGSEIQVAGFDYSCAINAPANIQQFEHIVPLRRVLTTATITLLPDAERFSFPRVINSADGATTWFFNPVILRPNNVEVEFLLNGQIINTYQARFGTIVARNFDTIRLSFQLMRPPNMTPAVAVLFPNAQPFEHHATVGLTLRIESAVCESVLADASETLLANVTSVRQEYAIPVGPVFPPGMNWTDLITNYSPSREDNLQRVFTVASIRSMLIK
compound,measurement,setting,value
DKLTTREIEQVELLKRIYDKLT [NSP4 114-135],weight lower than normal animals,[1],20-30%
same,% of animals with diarrhea,[2],80%
same,diarrhea,[3],no diarrhea was seen
same,intestinal fluid accumulation,[3],significant fluid accumulation
same,intracellular calcium in insect cells,[4],mobilize intracellular calcium levels
same,% Diarrhea,[5],100% and 80%
same,time frame of diarrhea induction,[6],about 3 hrs
same,# responders/total # tested,[6]; ip,8/12
same,% Diarrhea,[6]; ip,67%
same,DD50 (50% diarrheal dose),[6]; ip,79 nmol
same,diarrhea typically continued for,[6]; ip,up to 8 hr
same,"% pups with diarrhea, 2 days",[7],17%
same,"% pups with diarrhea, 3 days",[7],0%
same,"% pups with diarrhea, Total",[7],42%
same,"pups with diarrhea/total pups, 2 days",[7],(2/12)
same,"pups with diarrhea/total pups, 3 days",[7],(0/12)
same,"pups with diarrhea/total pups, Total",[7],(5/12)
same,increase in mucosal Isc after FSK pretreatment,[8],64 μA/cm2
EKLTDLNYTLSVITLMNNTLH [NSP4 2-22],# responders/total # tested,[6]; ip,0/11
same,% Diarrhea,[6]; ip,0%
same,symptoms with control peptides,[6]; ip,No symptoms
same,"% pups with diarrhea, 2 days",[7],63%
same,"% pups with diarrhea, 3 days",[7],25%
same,"% pups with diarrhea, Total",[7],100%
same,"pups with diarrhea/total pups, 2 days",[7],(10/16)
same,"pups with diarrhea/total pups, 3 days",[7],(4/16)
same,"pups with diarrhea/total pups, Total",[7],(16/16)
DTGRNLGEFKAYPDGFLTCV [NV 464-483],# responders/total # tested,[6]; ip,0/10
same,% Diarrhea,[6]; ip,0%
same,symptoms with control peptides,[6]; ip,No symptoms
"C=C[C@@]1(C)CC(=O)[C@]2(O)[C@@]3(C)[C@@H](O)CCC(C)(C)[C@@H]3[C@H](O)[C@H](OC(C)=O)[C@@]2(C)O1 [Forskolin (FSK), forskolin]",▴ISC,[8],44 ± 0.7 μA/cm^2 and 41 ± 7 μA/cm^2
MIDKLTTREI EQVELL KRIYDKLTVQTTGEIDMTKEINQKNVRTLEEWESGKNPYEPKEVTAAM [NSP4 112-175],enterotoxin activity,[9],has enterotoxin activity in mice
EIEQVELLKRIYDKLTVQTTGEIDMTKE [NSP4 120-147],% animals with diarrhea,[10],88%
same,animals with diarrhea,[10],7 out of 8
same,animals with severe diarrhea,[10],5 of 5
QS-21,Mean diarrhea score,[11],3.5 and 3.3
same,Pups with diarrhea % at indicated DPI: 3,[11],100%
same,Pups with diarrhea % at indicated DPI: 4,[11],56%
same,Pups with diarrhea/total at DPI 2,[11],(8/12); also recorded: (3/9)
same,Pups with diarrhea/total at DPI 3,[11],(12/12); also recorded: (9/9)
same,Pups with diarrhea/total at DPI 4,[11],(4/12); also recorded: (5/9)
same,Pups with diarrhea/total at DPI 7,[11],(12/12); also recorded: (9/9)
same,duration of diarrhea,[11],at least two days
same,Pups with diarrhea % at indicated DPI: 2,[11]; po,76%
same,Pups with diarrhea % at indicated DPI: 3,[11]; po,100%
same,Pups with diarrhea % at indicated DPI: 4,[11]; po,33%
same,serum antibody geometric mean titers (GMT) to NSP4 full-length in dams,[12],lacked antibody
same,Mean diarrhea score,[13],3.3
same,Pups with diarrhea % at indicated DPI: 0-8,[13],100%
same,Pups with diarrhea % at indicated DPI: 2,[13],29%
same,Pups with diarrhea % at indicated DPI: 3,[13],100%
same,Pups with diarrhea % at indicated DPI: 4,[13],100%
same,Pups with diarrhea % at indicated DPI: 5,[13],100%
same,Pups with diarrhea % at indicated DPI: 6,[13],86%
same,Pups with diarrhea % at indicated DPI: 7,[13],71%
same,Pups with diarrhea % at indicated DPI: 8,[13],14%
same,Pups with diarrhea/total at DPI 0-8,[13],(7/7)
same,Pups with diarrhea/total at DPI 2,[13],(2/7)
same,Pups with diarrhea/total at DPI 3,[13],(7/7)
same,Pups with diarrhea/total at DPI 4,[13],(7/7)
same,Pups with diarrhea/total at DPI 5,[13],(7/7)
same,Pups with diarrhea/total at DPI 6,[13],(6/7)
same,Pups with diarrhea/total at DPI 7,[13],(5/7)
same,Pups with diarrhea/total at DPI 8,[13],(1/7)
same,serum antibody titers to VP6 in dams (GMT),[14],2×10^3
TKDEIEKQMDRVVKEMRRQLEMIDKLTTREIEQ [NSP4 90-123],# responders/total # tested,[6]; ip,2/10
same,% Diarrhea,[6]; ip,20%
"C[N+](C)(C)CCOC(N)=O [Carbachol (Cch), carbachol]",Isc with FSK (potentiated effect of FSK),[8],64 μA/cm^2
same,increase in mucosal Isc after FSK pretreatment,[8],63 μA/cm2
same,▴ISC,[8],9 ± 2 μA/cm^2 and 14 ± 4 μA/cm^2
